Earlier results, collected in patent US20230372421A1, “IMMATURE POMEGRANATE EXTRACT FORMULATIONS” (CONSIGLIO NAZIONALE DELLE RICERCHE, priority 2020, published 2023).

Test system: cells of neuronal origin
Settings: Jin, Yu, Wang & Xu, 2016

For `O=C1O[C@H]2[C@H](OC(=O)c3cc(O)c(O)c(O)c3)O[C@@H]3COC(=O)c4cc(O)c(O)c(O)c4-c4c(cc(O)c(O)c4O)C(=O)O[C@H]2[C@@H]3OC(=O)c2cc(O)c(O)c3c2C2C1=CC(=O)C(O)(O)C2(O)O3` (stereo partly shown) [granatin B], the anticancer properties is listed as “important anticancer properties”.
